Reference: EP0936218B1, “BENZIMIDAZOLE DERIVATIVES” (MOCHIDA PHARMACEUTICAL CO., LTD., priority 1996, dated 1998)

Legend:
[1] = test system: intraperitoneal eosinophilia; assay: Action on intraperitoneal eosinophilia model mice (sensitized with swine roundworm extract); assay type: in vivo, BALB/c male mice; settings: oral, once a day, 10 times, BALB/c mice
Procedure: Using five animals per group of BALB/c male mice (about 25 g in body weight), 0.11 mL of physiological saline containing 0.1 mg of swine roundworm extract was administered into the peritoneal cavity of each mouse to sensitize. The same treatment was repeated 7 days after the administration and, 3 days thereafter, each animal was sacrificed by phlebotomy, 3 mL of physiological saline containing 1% dipotassium ethylenediaminetetraacetate (EDTA) was administered by intraperitoneal injection and its abdominal region was massaged for about 30 seconds. The abdominal region was incised to collect intraperitoneal fluid which was subsequently centrifuged at 130 x g for 10 minutes, and the resulting precipitate was mixed with 500 µl of fetal calf serum containing 1% EDTA to prepare a cell suspension. A portion of the cell suspension was daubed on a slide glass using a spinner to carry out Diff-Quik staining, and then total leukocytes and eosinophils were counted to calculate the ratio of eosinophils in the total leukocytes. The number of total leukocytes in the cell suspension was measured using an automatic blood cell counter. The number of eosinophils in the cell suspension was calculated by multiplying the ratio of eosinophils in the total leukocytes by the number of total leukocytes.
Each of the compounds to be tested was suspended in 5% acacia aqueous solution and orally administered once a day for a total of 10 times starting immediately after the initial sensitization (test compound-administered group). Also, 5% acacia aqueous solution was orally administered to a group of mice in which sensitization and administration of test compounds were not carried out (non-treated group) and another group of mice in which sensitization was carried out but test compounds were not administered (control group).
The dose of each compound to be tested and the intraperitoneal eosinophilia inhibition rate calculated by the following formula are shown in Table 1. Eosinophilia inhibition rate (%) = {1 - (test compound- administered group - non-treated group)/(control group - non- treated group)} x 100 [formula]

BALB/c male mice = settings: mouse, in vivo, po, 100 mg/kg/day
Excerpt: Toxicity of compounds of the present invention was examined.

| SMILES | Intraperitoneal eosinophilia inhibition rate (%) ([1]; dose 10 mg/kg/day) | mortal case (BALB/c male mice) | also measured |
| --- | --- | --- | --- |
| CCOC(=O)CC(=O)c1cccc2nc(CCc3ccccc3)[nH]c12 [Example 3, ethyl 3-(2-(2-phenylethyl)benzimidazol-4-yl)-3-oxopropanoate] | 67% | – | Intraperitoneal eosinophilia inhibition rate (%) ([1]; dose 30 mg/kg/day): 75% |
| CC(=O)OCC(=O)[C@@]1(O)CC[C@H]2[C@@H]3CCC4=CC(=O)C=C[C@]4(C)[C@H]3[C@@H](O)C[C@@]21C [Prednisolone acetate, 11β,17α,21-trihydroxypregna-1,4-diene-3,20-dione 21-acetate, reference compound] | 61 - 85% | – | – |
| COC(=O)CC(=O)c1cccc2nc(CCc3ccccc3)[nH]c12 [Example 2, methyl 3-(2-(2-phenylethyl)benzimidazol-4-yl)-3-oxopropanoate] | – | no mortal case was found | Intraperitoneal eosinophilia inhibition rate (%) ([1]; dose 100 mg/kg/day): 42% |
| CCOC(=O)CC(=O)c1cccc2c1nc(CCc1ccccc1)n2C [Example 10, ethyl 3-(1-methyl-2-(2-phenylethyl)benzimidazol-4-yl)-3-oxopropanoate] | – | no mortal case was found | – |
| CCOC(=O)CC(O)c1cccc2nc(CCc3ccccc3)[nH]c12 (stereo not drawn) [Example 6, ethyl 3-(2-(2-phenylethyl)benzimidazol-4-yl)-3-hydroxypropanoate] | 59% | – | Intraperitoneal eosinophilia inhibition rate (%) ([1]; dose 3 mg/kg/day): 35% |
| COC(=O)CC(O)c1cccc2nc(CCc3ccccc3)[nH]c12 (stereo not drawn) [Example 5, methyl 3-(2-(2-phenylethyl)benzimidazol-4-yl)-3-hydroxypropanoate] | – | no mortal case was found | Intraperitoneal eosinophilia inhibition rate (%) ([1]; dose 100 mg/kg/day): 62% |
| O=C(O)CC(=O)c1cccc2nc(CCc3ccccc3)[nH]c12 [Example 1, 3-(2-(2-phenylethyl)benzimidazol-4-yl)-3-oxopropanoic acid] | – | no mortal case was found | Intraperitoneal eosinophilia inhibition rate (%) ([1]; dose 3 mg/kg/day): 67%; Intraperitoneal eosinophilia inhibition rate (%) ([1]; dose 30 mg/kg/day): 78% |
| O=C(O)CC(O)c1cccc2nc(CCc3ccccc3)[nH]c12 (stereo not drawn) [Example 7, 3-(2-(2-phenylethyl)benzimidazol-4-yl)-3-hydroxypropanoic acid] | – | no mortal case was found | Intraperitoneal eosinophilia inhibition rate (%) ([1]; dose 0.3 mg/kg/day): 55% |
